Our source for the IC50 values is patent US9328112B2, “Tetracyclic CDK9 kinase inhibitors” (AbbVie Inc., priority 2014, dated 2016).

One assay deals with CDK9/Cyclin T1 (Homo sapiens (Human), UniProt P50750). The assay is described as follows: CDK9 enzyme assay (LANCE ULight TR-FRET kinase assay). The settings on record: 1000 μM ATP, 100 nM ULight MBP, kinase reaction 1 hour. Format: biochemical. An outline of the steps:
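Human CDK9/Cyclin T1 phosphorylating 100 nM ULight-MBP with 1000 μM ATP in HEPES/MgCl2 buffer, 1 h reaction. Stopped with 20 mM EDTA plus 0.5 nM Eu anti-phospho-MBP antibody, incubated 1 h, read by TR-FRET (ex 320 nm, em 615/665 nm).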
(Time-resolved FRET reads energy transfer from a long-lived donor to a nearby acceptor.)

The test system of another assay is H929 cells. Description: Cell viability assay (Cell TiterGlo). Format: cell-based. The following applies: Cell TiterGlo luminescence. On the procedure: The cell viability assay was performed using H929 cells. Cells were seeded in 96-well plates at 10,000 cells/well and, after overnight incubation, treated with compounds in a dose response of 3-fold dilutions from 10 μM to 0.005 μM ([…], 0.1% final DMSO concentration). After 24 hours at 37° C., cell viability was measured using Cell TiterGlo reagent (Promega) with a luminescence reader.
(In ATP-based viability assays light output follows the ATP content of the culture.)

Where [1] appears, read: Homo sapiens, NCI-H929, 24 hours at 37° C.

Structures are written as SMILES. Counter-ions that a name gives are not always drawn.

Chain of CDK9/Cyclin T1 (P50750 whole entry): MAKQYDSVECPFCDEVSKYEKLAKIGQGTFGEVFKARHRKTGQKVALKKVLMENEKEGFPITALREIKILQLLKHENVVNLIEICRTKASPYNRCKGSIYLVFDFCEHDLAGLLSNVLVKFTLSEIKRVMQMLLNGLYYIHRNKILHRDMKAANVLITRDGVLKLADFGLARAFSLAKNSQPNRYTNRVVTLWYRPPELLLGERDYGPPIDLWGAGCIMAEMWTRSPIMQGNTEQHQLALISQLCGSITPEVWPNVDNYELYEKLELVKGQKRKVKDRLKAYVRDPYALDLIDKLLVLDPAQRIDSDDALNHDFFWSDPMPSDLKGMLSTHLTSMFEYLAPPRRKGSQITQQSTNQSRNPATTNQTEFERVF
Chain of CDK9/Cyclin T1 (O60563 whole entry partner): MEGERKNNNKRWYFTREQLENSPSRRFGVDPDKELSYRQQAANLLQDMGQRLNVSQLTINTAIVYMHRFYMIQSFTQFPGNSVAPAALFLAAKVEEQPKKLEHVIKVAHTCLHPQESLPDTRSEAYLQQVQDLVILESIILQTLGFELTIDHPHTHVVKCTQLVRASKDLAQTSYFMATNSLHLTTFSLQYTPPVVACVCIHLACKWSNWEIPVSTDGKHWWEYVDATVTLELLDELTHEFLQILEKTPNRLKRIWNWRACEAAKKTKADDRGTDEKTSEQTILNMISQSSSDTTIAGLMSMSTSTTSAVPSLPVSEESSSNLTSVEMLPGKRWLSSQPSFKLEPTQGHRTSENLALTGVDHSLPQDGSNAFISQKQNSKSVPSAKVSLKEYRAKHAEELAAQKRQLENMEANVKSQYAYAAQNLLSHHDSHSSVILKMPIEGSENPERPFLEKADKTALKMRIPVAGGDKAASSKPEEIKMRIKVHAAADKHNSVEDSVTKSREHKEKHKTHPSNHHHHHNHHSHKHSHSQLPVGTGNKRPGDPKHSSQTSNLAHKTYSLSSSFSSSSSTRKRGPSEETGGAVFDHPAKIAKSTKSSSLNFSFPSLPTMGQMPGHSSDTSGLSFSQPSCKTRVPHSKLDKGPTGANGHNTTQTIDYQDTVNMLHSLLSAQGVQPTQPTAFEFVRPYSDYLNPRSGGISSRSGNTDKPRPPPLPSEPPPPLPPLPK

The term IC50 denotes the concentration needed to halve the response being measured. Low readings indicate higher potency, high ones lower potency. Regarding `CN1Cc2c(C3=CCN(S(C)(=O)=O)CC3(C)C)[nH]c3nccc(c23)-c2cc(F)ccc21` [Example 113, 5-[3,3-dimethyl-1-(methylsulfonyl)-1,2,3,6-tetrahydropyridin-4-yl]-10-fluoro-7-methyl-6,7-dihydro-4H-3,4,7-triazadibenzo[cd,f]azulene], the IC50 came out at 650 nM against CDK9/Cyclin T1 and 2700 nM with H929 cells (setting [1]).
For `CN1Cc2c(C3=CCN(C4CCC(=CC(=O)O)CC4)CC3)[nH]c3nccc(c23)-c2cc(F)ccc21` (stereo not drawn) [Example 177, {4-[4-(10-fluoro-7-methyl-6,7-dihydro-4H-3,4,7-triazadibenzo[cd,f]azulen-5-yl)-3,6-dihydropyridin-1(2H)-yl]cyclohexylidene}acetic acid], the figures for the IC50 against CDK9/Cyclin T1 and in the assay on H929 cells (setting [1]) were 58 nM and 120 nM, respectively.
The corresponding values for `CN(CC(O)CO)C(=O)CN1CC=C(c2[nH]c3nccc4c3c2CN(C)c2ccc(F)cc2-4)C(C)(C)C1` (stereo not drawn) [Example 119, N-(2,3-dihydroxypropyl)-2-[4-(10-fluoro-7-methyl-6,7-dihydro-4H-3,4,7-triazadibenzo[cd,f]azulen-5-yl)-3,3-dimethyl-3,6-dihydropyridin-1(2H)-yl]-N-methylacetamide] are 1300 nM and 2400 nM.
Consider `CCOC(=O)C1c2c(C3=CCNCC3)[nH]c3nccc(c23)-c2cc(F)ccc2N1C` (stereo not drawn) [Example 28, ethyl 10-fluoro-7-methyl-5-(1,2,3,6-tetrahydropyridin-4-yl)-6,7-dihydro-4H-3,4,7-triazadibenzo[cd,f]azulene-6-carboxylate], for which the IC50 at CDK9/Cyclin T1 amounted to 150 nM; in the assay with H929 cells (setting [1]), 25 nM.
As to `CN1Cc2c(C3=CCN(C4CC(C(=O)O)C4)CC3)[nH]c3ncc(F)c(c23)-c2cc(F)ccc21` (stereo not drawn) [Example 193, 3-[4-(1,10-difluoro-7-methyl-6,7-dihydro-4H-3,4,7-triazadibenzo[cd,f]azulen-5-yl)-3,6-dihydropyridin-1(2H)-yl]cyclobutanecarboxylic acid], the figures for the concentration for half-maximal inhibition (IC50) against CDK9/Cyclin T1 and in the assay on H929 cells (setting [1]) were 76 nM and 11 nM, respectively.
With `CN1Cc2c(C3=CCN([C@H]4CC[C@H](C(=O)O)CC4)CC3)[nH]c3nccc(c23)-c2cc(F)c(F)cc21` [Example 150, trans-4-[4-(9,10-difluoro-7-methyl-6,7-dihydro-4H-3,4,7-triazadibenzo[cd,f]azulen-5-yl)-3,6-dihydropyridin-1(2H)-yl]cyclohexanecarboxylic acid], the IC50 on CDK9/Cyclin T1 stood at 57 nM; in the assay on H929 cells (setting [1]), 28 nM.
The corresponding values for `CN1Cc2c(C3=CCCNC3)[nH]c3nccc(c23)-c2cc(F)ccc21` [Example 93, 10-fluoro-7-methyl-5-(1,2,5,6-tetrahydropyridin-3-yl)-6,7-dihydro-4H-3,4,7-triazadibenzo[cd,f]azulene] are 46 nM and 110 nM.
On the same counts, the results for `CC1c2c(C3=CCN(S(C)(=O)=O)CC3)[nH]c3nccc(c23)-c2cc(F)ccc2N1C` (stereo not drawn) [Example 20, 10-fluoro-6,7-dimethyl-5-[1-(methylsulfonyl)-1,2,3,6-tetrahydropyridin-4-yl]-6,7-dihydro-4H-3,4,7-triazadibenzo[cd,f]azulene] are 110 nM and 47 nM.
With `CN1Cc2c(C3=CCN(CC(=O)N4CC(F)(F)C4)CC3)[nH]c3nccc(c23)-c2cc(F)ccc21` [Example 54, 1-(3,3-difluoroazetidin-1-yl)-2-[4-(10-fluoro-7-methyl-6,7-dihydro-4H-3,4,7-triazadibenzo[cd,f]azulen-5-yl)-3,6-dihydropyridin-1(2H)-yl]ethanone], the IC50 against CDK9/Cyclin T1 turned out to be 63 nM; in the assay on H929 cells (setting [1]) it was 92 nM.
Regarding `CS(=O)(=O)N1CC=C(c2[nH]c3nccc4c3c2COc2ccc(F)cc2-4)CC1` [Example 15, 10-fluoro-5-[1-(methylsulfonyl)-1,2,3,6-tetrahydropyridin-4-yl]-4,6-dihydro-7-oxa-3,4-diazadibenzo[cd,f]azulene], the results for the IC50 at CDK9/Cyclin T1 and in the assay with H929 cells (setting [1]) were 94 nM and 590 nM, respectively.
As for `CC(C)[C@H](NC1CC=C(c2[nH]c3nccc4c3c2CN(C)c2ccc(F)cc2-4)CC1)C(=O)O` (stereo partly drawn) [Example 34, N-[4-(10-fluoro-7-methyl-6,7-dihydro-4H-3,4,7-triazadibenzo[cd,f]azulen-5-yl)cyclohex-3-en-1-yl]-L-valine], the IC50 at CDK9/Cyclin T1 was found to be 120 nM; with H929 cells (setting [1]), 92 nM.
Turning to `CN1CCc2c(C3=CCN([C@H]4C[C@H](C(=O)O)C4)CC3)[nH]c3nccc(c23)-c2cc(F)ccc21` [Example 190, trans-3-[4-(8-fluoro-5-methyl-1,3,4,5-tetrahydro-1,5,12-triazabenzo[4,5]cycloocta[1,2,3-cd]inden-2-yl)-3,6-dihydropyridin-1(2H)-yl]cyclobutanecarboxylic acid], the IC50 came to 160 nM against CDK9/Cyclin T1 and 190 nM in the assay with H929 cells (24 hours at 37° C.).
With `CCC1c2c(C3=CCNCC3)[nH]c3nccc(c23)-c2cc(F)ccc2N1C` (stereo not drawn) [Example 9, 6-ethyl-10-fluoro-7-methyl-5-(1,2,3,6-tetrahydropyridin-4-yl)-6,7-dihydro-4H-3,4,7-triazadibenzo[cd,f]azulene dihydrochloride], the IC50 at CDK9/Cyclin T1 came to 48 nM; in the assay on H929 cells (setting [1]) it was 10 nM.
As for `CN1Cc2c(C3=CC4CN(S(C)(=O)=O)CC4C3)[nH]c3nccc(c23)-c2cc(F)ccc21` (stereo not drawn) [Example 78, 10-fluoro-7-methyl-5-[2-(methylsulfonyl)-1,2,3,3a,4,6a-hexahydrocyclopenta[c]pyrrol-5-yl]-6,7-dihydro-4H-3,4,7-triazadibenzo[cd,f]azulene], the IC50 came to 62 nM against CDK9/Cyclin T1 and 30 nM in the assay with H929 cells (setting [1]).
Regarding `CN1Cc2c(C3=CCN(C4CCC(C(C)(C)C(=O)O)CC4)CC3)[nH]c3nccc(c23)-c2cc(F)ccc21` (stereo not drawn) [Example 185, 2-{4-[4-(10-fluoro-7-methyl-6,7-dihydro-4H-3,4,7-triazadibenzo[cd,f]azulen-5-yl)-3,6-dihydropyridin-1(2H)-yl]cyclohexyl}-2-methylpropanoic acid], the IC50 on CDK9/Cyclin T1 turned out to be 130 nM; in the assay with H929 cells (setting [1]), 160 nM.
On the same counts, the results for `CN1Cc2c(C3=CCN(CC(=O)N(CCO)CCO)CC3)[nH]c3nccc(c23)-c2cc(F)ccc21` [Example 53, 2-[4-(10-fluoro-7-methyl-6,7-dihydro-4H-3,4,7-triazadibenzo[cd,f]azulen-5-yl)-3,6-dihydropyridin-1(2H)-yl]-N,N-bis(2-hydroxyethyl)acetamide] are 57 nM and 47 nM.
On to `CS(=O)(=O)N1CC=C(c2[nH]c3nccc4c3c2CN(CC2CCOCC2)c2ccc(F)cc2-4)CC1` [Example 7, 10-fluoro-5-[1-(methylsulfonyl)-1,2,3,6-tetrahydropyridin-4-yl]-7-(tetrahydro-2H-pyran-4-ylmethyl)-6,7-dihydro-4H-3,4,7-triazadibenzo[cd,f]azulene], for which the IC50 at CDK9/Cyclin T1 was determined as 800 nM; in the assay with H929 cells (setting [1]), 3300 nM.
The corresponding values for `CN(C)C(=O)C1CC=C(c2[nH]c3nccc4c3c2CN(C)c2ccc(F)cc2-4)CC1` (stereo not drawn) [Example 50, 4-(10-fluoro-7-methyl-6,7-dihydro-4H-3,4,7-triazadibenzo[cd,f]azulen-5-yl)-N,N-dimethylcyclohex-3-ene-1-carboxamide] are 120 nM and 960 nM.
On the same counts, the results for `CN1Cc2c(-c3ccc(CC(=O)O)cc3)[nH]c3nccc(c23)-c2cc(F)ccc21` [Example 81, [4-(10-fluoro-7-methyl-6,7-dihydro-4H-3,4,7-triazadibenzo[cd,f]azulen-5-yl)phenyl]acetic acid] are 68 nM and 790 nM.
The corresponding values for `CN1Cc2c(C3=CCN(CC(=O)O)CC3)[nH]c3nccc(c23)-c2cc(F)ccc21` [Example 16, [4-(10-fluoro-7-methyl-6,7-dihydro-4H-3,4,7-triazadibenzo[cd,f]azulen-5-yl)-3,6-dihydropyridin-1(2H)-yl]acetic acid dihydrochloride] are 61 nM and 220 nM.
For `CN1Cc2c(C3=CCN(CC(=O)N4CCC[C@@H]4CO)CC3)[nH]c3nccc(c23)-c2cc(F)ccc21` [Example 64, 2-[4-(10-fluoro-7-methyl-6,7-dihydro-4H-3,4,7-triazadibenzo[cd,f]azulen-5-yl)-3,6-dihydropyridin-1(2H)-yl]-1-[(2R)-2-(hydroxymethyl)pyrrolidin-1-yl]ethanone], the IC50 against CDK9/Cyclin T1 turned out to be 62 nM; with H929 cells (setting [1]), 94 nM.
On the same counts, the results for `CN1Cc2c(C3=CCCN(CC(=O)N(C)C4CC(O)C4)C3)[nH]c3nccc(c23)-c2cc(F)ccc21` (stereo not drawn) [Example 122, 2-[5-(10-fluoro-7-methyl-6,7-dihydro-4H-3,4,7-triazadibenzo[cd,f]azulen-5-yl)-3,6-dihydropyridin-1(2H)-yl]-N-(3-hydroxycyclobutyl)-N-methylacetamide] are 420 nM and 1400 nM.
In the case of `CC[C@H]1c2c(C3=CCNCC3)[nH]c3nccc(c23)-c2cc(F)ccc2N1C` [Example 142, (6S)-6-ethyl-10-fluoro-7-methyl-5-(1,2,3,6-tetrahydropyridin-4-yl)-6,7-dihydro-4H-3,4,7-triazadibenzo[cd,f]azulene], the IC50 against CDK9/Cyclin T1 is 30 nM; in the assay on H929 cells (setting [1]), 5 nM.
Consider `CN1Cc2c(C3=C[C@H](CO)NCC3)[nH]c3nccc(c23)-c2cc(F)c(F)cc21` [Example 126, [(2R)-4-(9,10-difluoro-7-methyl-6,7-dihydro-4H-3,4,7-triazadibenzo[cd,f]azulen-5-yl)-1,2,5,6-tetrahydropyridin-2-yl]methanol], for which the IC50 against CDK9/Cyclin T1 was determined as 58 nM; in the assay with H929 cells (setting [1]), 39 nM.
